Residues, ends and D or L forms follow the SMILES beside them.
Key:
[1] = tested on: APPSwe/PS1DE9; conditions: mouse, in vivo, 50 mg/kg
Description: FIG. 4. Mouse brain distribution of Aβ1-6A2V (D) peptide 2 hours after the last intranasal administration: A) Control and B) Treated Mice. FIG. 5. Effect of Aβ1-6A2V(D) on Aβ oligomer formation in the brain: biochemical assessment. APPSwe/PS1DE9 were treated with Aβ1-6A2V(D) at 50 mg/kg for five months. Control group was treated intranasally with PBS. A: Levels of Aβ aggregates in soluble and insoluble brain fractions after 2.5 months of treatment. B: Levels of Aβ aggregates in soluble and insoluble brain fractions after five months of treatment. * p<0.01; *** p<0.001. FIG. 6. Effect of Aβ1-6A2V(D) on Aβ deposits in mouse brain: neuropathological assessment. A: APPSwe/PS1DE9 were treated with Aβ1-6A2V(D) daily for five months at 50 mg/kg. Control group (CTRL) was treated intranasally with PBS. Amyloid burden measured by plaque count. ** p<0.01; *** p<0,001. B: Immunohistochemistry with the 4G8 anti-Aβ antibody. FIG. 7. Effect of Aβ1-6A2V(D) on synaptopathy. Subcellular fractionation of hippocampal homogenates from mice treated with Aβ1-6A2V(D) (right columns) or PBS (left columns). Western blot analysis with antibodies against synaptic receptors (NMDA-2A, GluN2B, GluA1 and GluA2) and scaffold protein (PSD95). The treatment with Aβ1-6A2V(D) preserved synaptic integrity. […]

[2] = mouse, in vivo, 16.7 mg/kg

In the case of CC(C)[C@@H](NC(=O)[C@H](N)CC(=O)O)C(=O)N[C@H](CCC(=O)O)C(=O)N[C@H](Cc1ccccc1)C(=O)N[C@H](CCCNC(=N)N)C(=O)N[C@H](Cc1c[nH]cn1)C(=O)O [Aβ1-6A2V(D)] (HELM PEPTIDE1{[dD].[dV].[dE].[dF].[dR].[dH]}$$$$V2.0; N-terminus and C-terminus assumed), the “Diffusion of the peptide in brain tissue” value [1] is reported as “consistent diffusion of the peptide in brain tissue”, the “Diffusion of the peptide in brain tissue” value [2] is reported as “consistent diffusion of the peptide in brain tissue” and the “Presence of the peptide in cerebral cortex 48 hours after last treatment” value [2] is reported as “can be still observed in the cerebral cortex”.
